This is an account of results in PMC2944077, “Placental Transfer of Conjugated Bisphenol A and Subsequent Reactivation in the Rat Fetus” (Environmental Health Perspectives, 2010).

SMILES strings stand for the structures.

Series [1] has as its system UGT. The conditions noted are these: GD19.0; ref Matsumoto et al. 2002; cited from earlier work.
For series [2] the following is noted: oral 10 mg/kg BPA to GD16.0 rat mothers; ref Domoradzki et al. (2003); cited from earlier work.
The subject of series [3] is UGT. Put plainly: UGT enzyme analysis using hepatic microsomes. The format is in vitro ADME, rat. The text has this:
We examined UGT enzymatic activity using hepatic microsomes. We prepared the microsomes from rat liver and performed UGT enzyme analysis as described previously by [Daidoji et al (2006)]. See the Supplemental Material (doi:10.1289/ehp.0901575) for details.
Figure 6 Metabolism of BPA-GA in the fetus. Abbreviations: H, fetal heart; L, fetal liver; ML, maternal liver; P, placenta. (A) Time course showing concentration of deconjugated BPA (mean ± SE) in the extract of cultured fetal liver and heart cells (see “Materials and Methods” for details; n = 5). (B) Expression of β-Gase in the fetal liver and heart on GD18.5 by RT-PCR. (C) Expression of UGT isoforms in ML, P, L, and […] determined by RT-PCR. […] Values shown are the concentration (mean ± SE) of glucuronide conjugates in microsome protein (nmol/μg) after 30-min reaction time (n = 5).

On the set-up of series [4]: method as in Krishnan et al. 1993; Nagel et al. 1997. The note with it: in vivo and in vitro; ref Krishnan et al. 1993; Nagel et al. 1997; cited from earlier work.
Another series deals with CD-1 mice. Details: method as in Timms et al. 2005. The conditions noted are these: 10 μg/kg BPA/day; ref Timms et al. 2005; cited from earlier work.
The nature of series [5]: Uterine perfusion of pregnant rats with glucuronide substrate; distribution in maternal-placental-fetal unit. The note with it: for Amount of substrate (glucuronide) detected in perfusate (maternal side): 2 μM substrate 20 min (120 nmol total) then 70 min without substrate. It is filed as in vivo, rat. The text has this: Additional details of the surgical procedure are available in the Supplemental Material (doi:10.1289/ehp.0901575). In this perfusion system, the perfusate pumped into the abdominal aorta is circulated through one uterine artery– placenta–fetus–uterine vein unit and drips from the drain tube inserted in the caudal vein. After the perfusion, dams and fetuses were euthanized by incision of the caudal vena cava under anesthesia and tissues were collected.
We used modified Krebs-Ringer’s buffer (mKRB; 126 mM NaCl, 3 mM KCl, 1.2 mM KH2PO4, 1.3 mM MgSO4, 2.4 mM CaCl2, 10 mM glucose, 26 mM NaHCO3, 2.5% dextran from Leuconostoc mesenteroides, and 3% Dextran 70) as the perfusate. The perfusate was pumped at a constant rate of 3 mL/min. First, we perfused four animals in a preliminary group with 10 μM BPA-GA for 20 min to determine whether BPA-GA is transferred into the fetus across the placenta. In this group, we performed a preliminary perfusion with mKRB for 5 min to wash away blood, followed by 20 min inflow of mKRB containing 10 μM BPA-GA. After the perfusion, the fetus and amniotic fluid were collected.
To elucidate the kinetics of perfused BPA-GA, we used another group of four animals to compare the amount of BPA-GA in maternal veins with that in fetal tissue. After preliminary perfusion with mKRB for 5 min, pregnant rats were perfused with mKRB containing 2 μM BPA-GA for 20 min. Then, mKRB without BPA-GA was perfused for 70 min (a total of 90 min). From the beginning of the BPA-GA perfusion, the perfusate that drained from the caudal vena cava was collected from each animal at 5-min intervals for 90 min. At the end of perfusate collection, the fetus, amnion, amniotic fluid, uterus, and placenta were collected. We also performed a control study using 1-naphthol-glucuronide (1-NA-GA; Nacalai Tesque Inc., Kyoto, Japan) as the substrate. Four pregnant rats were used in each perfusion group. […]
Perfusates collected from the caudal vena cava were collected after uterine perfusion and prepared for HPLC and LC/TOF-MS analysis. Each perfusate sample was mixed with a 4-fold volume of acetonitrile and centrifuged at 13,000 rpm for 5 min at 4°C; each supernatant was then analyzed by HPLC.
To prepare tissues for HPLC and LC/TOF-MS analysis, we first added each sample to 0.3 mL methanol; the sample was homogenized and then sonicated for 5 min. The products were centrifuged at 13,000 rpm for 5 min at 4°C, and the supernatants were concentrated by solid-phase extraction using an Oasis HLB Plus cartridge (Waters Corp., Milford, MA, USA). The extracts were then analyzed by HPLC.
We used an HPLC system (Tosoh Corp., Tokyo, Japan) that consisted of a dual pump (DP-8020), a fluorescent photometer (FS-8020), and a column oven (CO-8020). Samples were separated at 40°C using a reverse-phase column (Unison UK-C18; Imtakt Corp., Kyoto, Japan) at a flow rate of 1.0 mL/min under a linear gradient of solution A (methanol/water = 24/76 vol/vol with 10 mM ammonium acetate) and solution B (methanol) for 20 min. BPA-GA was detected at excitation/emission of 275/308 nm and 1-NA-GA was detected at excitation/emission of 283/336 nm. The results were recorded using LC-8020 integration software (Tosoh Corp.); the elution peaks of BPA and BPA-GA were noted and the concentrations compared with the standards.
LC/TOF-MS was performed using the HPLC system described above and LCT premier XE (Waters Corp.). The flow rate of HPLC was 0.3 mL/min, and BPA-GA was monitored at m/z 403–404 by TOF-MS. In the present study, the limits of detection of BPA and BPA-GA in LC/TOF-MS were both 20 pmol/mL (data not shown).

For another series, the system named is fetal liver cells. Put plainly: Incubation of fetal primary cell cultures with BPA-GA (deconjugation). The format is in vitro ADME, rat. The conditions noted are these: 25 μM BPA-GA, 37°C, 10-120 min, GD18.5. The protocol:
(§1) Fetal liver and heart tissues, collected on GD18.5, were washed twice with cold phosphate-buffered saline (PBS). Tissues for two fetuses were combined in one tube and then minced in cold PBS and centrifuged for 5 min at 100 × g at 4°C. After removing the supernatant, the pellets were resuspended in 5 mL William’s medium (Sigma-Aldrich, Inc., St. Louis, MO, USA) containing collagenase (350 U; Wako Pure Chemical Industries, Ltd., Osaka, Japan) and DNase I (375 U; Roche Diagnostics, Basel, Switzerland) and incubated for 30 min at 37°C. After the incubation, samples were centrifuged for 5 min at 100 × g at 4°C, and the supernatants were removed. The remaining cells, which had been isolated from two fetuses, were resuspended in 200 μL William’s medium with or without 25 μM BPA-GA and incubated at 37°C for 10, 30, 60, or 120 min. At each time point, cells and medium were pooled and extracts were prepared for HPLC as described above, by adding the same volume of methanol. All experiments were repeated five times. Values express the mean ± SE.

For a further series, the system named is fetal heart cells. Described as above. It is filed as in vitro ADME, rat. The conditions noted are these: 25 μM BPA-GA, 37°C, 10-120 min, GD18.5. The procedure:
as §1

The test system of series [6] is placental trophoblast primary cell culture. Briefly: Deconjugation of BPA-GA in placental trophoblast primary cell culture. The format is in vitro ADME, rat. The note with it: data not shown. The procedure: After co-incubation with BPA-GA, we detected deconjugated BPA in fetal liver and to a small degree in fetal heart (Figure 6A). We observed β-Gase expression in both tissues (Figure 6B). […] The difference in deconjugation rates among tissues in the present study may reflect uptake into cells via transporters rather than through β-Gase expression. Another possibility is that BPA-GA is deconjugated in the placenta and then resultant BPA is transferred into the fetus by passive diffusion. Therefore, we also examined deconjugation of BPA-GA in placental trophoblast primary cell culture. […] The possibility of transfer of placental deconjugated BPA could not be excluded completely in this experiment. Further work is required to examine the tissue-specific deconjugation of BPA-GA and the possibility of BPA transfer.

On the set-up of series [7]: method as in Matthews et al. 2001. The note with it: ref Matthews et al. 2001; cited from earlier work.
Where [8] appears, read: 2 μM substrate 20 min then 70 min without substrate, GD18.5, mean ± SD, n = 4.

Turning to `CC(C)(c1ccc(O)cc1)c1ccc(O)cc1` [BPA, Bisphenol A], the “UGT activity toward BPA in pregnant rats relative to nonpregnant adult rats” value with UGT [1] is reported as “about 70%”. In series [2], the “Concentration of BPA-GA in the fetus compared with that in maternal plasma” value is “approximately 0.1%”. The “Fetal UGT activity toward BPA relative to nonpregnant adult rats” value with UGT [3] (late pregnancy, in theory, from 20% of maternal and 70% pregnant/nonpregnant) is on record as less than 15%. Further, in the series with UGT [3] (liver microsomes, GD18.5), the “UGT activities in fetal liver microsomes compared with those in the mother” value is on record as “quite low”. In addition, the “Fetal UGT activity toward substrate relative to maternal microsomes” value in the series with UGT [3] (liver microsomes, GD18.5, 30-min reaction) is recorded as “about 20%”. Also, the Estrogenic activity entry in [4] is on record as “weak estrogenic activity”. In addition, in the series with CD-1 mice, the “Effect of maternal exposure on prostate and urethra in male fetuses” value is “induces abnormal development of the prostate and urethra”.

On to `O=C(O)[C@H]1O[C@@H](Oc2cccc3ccccc23)[C@H](O)[C@@H](O)[C@@H]1O` [1-NA-GA, 1-naphthol-glucuronide, reference compound], for which the “Amount of substrate (glucuronide) detected in perfusate (maternal side)” value in series [5] (GD18.5, mean ± SD, n = 4) amounted to 111.77 ± 2.58 nmol.

Consider `CC(C)(c1ccc(O)cc1)c1ccc(O[C@@H]2O[C@H](C(=O)O)[C@@H](O)[C@H](O)[C@H]2O)cc1` [BPA-GA, BPA-glucuronide], for which, in the series with fetal liver cells, the “Deconjugation of BPA-GA to BPA in fetal liver cells” value is listed as “in a time-dependent manner”. Besides, in the series with fetal heart cells, the “Deconjugation of BPA-GA to BPA in fetal heart cells” value is “to a much smaller degree”. For the same compound, in [5] (2 μM BPA-GA 20 min, total perfusion 90 min), the “Share of the total amount of BPA-GA detected in the fetus” value is listed as “about 0.09%”. Besides, in [5] (2 μM BPA-GA 20 min then perfusion without BPA-GA, n = 4), the “BPA-GA in the collected perfusate after 70 min” value is reported as “barely detected”. For the same compound, the “Amount of substrate (glucuronide) detected in perfusate (maternal side)” value in series [5] (GD18.5, mean ± SD, n = 4) was determined as 113.10 ± 6.92 nmol. In addition, in [5] (setting [8]), the “Amount of deconjugated substrate (BPA or 1NA) detected in amniotic fluid” value amounted to 31.35 ± 4.52 pmol, the “Amount of deconjugated substrate (BPA or 1NA) detected in fetus” value was found to be 6.45 ± 1.45 pmol and the “Amount of substrate (glucuronide) detected in fetus” value is given as 109.26 ± 36.75 pmol. Also, the “Deconjugated BPA in the fetus and amniotic fluid after preliminary perfusion” value in [5] (10 μM BPA-GA, 20-min inflow, HPLC) is recorded as “detected”. Moreover, in series [5] (10 μM BPA-GA, 20-min inflow, HPLC, confirmed by LC/TOF-MS), the “BPA-GA in the fetus and amniotic fluid after preliminary perfusion” value was “detected”. In [6], the “Deconjugation of BPA-GA in trophoblast cells” value is listed as “did not observe deconjugation”. In addition, in [7], the “Biological activity of metabolite” value is “biologically inactive”.
